Source: patent publication US8932818B2, “Screening assays for compounds that modulate programmed ribosomal frameshifting” (PTC Therapeutics, Inc., priority 2008, dated 2015)

Test system: HIV-1 frameshift signal sequence
Assay: dual luciferase assay for viral programmed ribosomal frameshifting
Type: cell-based
Source text: For example, the ability of a compound to modulate the efficiency of viral programmed ribosomal frameshifting can be validated in a dual luciferase assay comprising: (a) contacting a compound with a host cell expressing a nucleic acid construct comprising in 5′ to 3′ order: (i) a promoter sequence; (ii) the Renilla luciferase (rluc) gene; (iii) the HIV-1 frameshift signal sequence; (iv) the firefly luciferase gene (flue); and (v) a polyadenylation sequence; and (b) detecting the activity of Renilla luciferase versus that of firefly luciferase, wherein a compound that modulates the efficiency of programmed ribosomal frameshifting is validated if (i) the activity of Renilla luciferase in the presence of the compound is not changed relative to the activity of Renilla luciferase detected in the absence of the compound; and (ii) the activity of firefly luciferase detected in the presence of the compound is changed relative to the activity of firefly luciferase detected in the absence of the compound. In other words, the ratio of Renilla luciferase to firefly luciferase is changed in the presence of the compound relative to the absence of the compound.
The ability of Compound 1 to modulate the efficiency of viral programmed ribosomal frameshifting was measured using a dual luciferase assay (as described in Biswas, et al., 2004, J. Virol. 78(4):2082-2087).

COc1ccc2c(c1)C(=O)N(c1ccc(C(C)C)cc1)C2 [Compound 1, 2-(4-isopropylphenyl)-6-methoxyisoindolin-1-one]
modulates the efficiency of viral programmed ribosomal frameshifting (dual luciferase assay): modulates the efficiency of viral programmed ribosomal frameshifting | inhibition in luciferase activity relative to negative control (relative to 0.5% DMSO, average at compound test concentration approximately 5 μM to approximately 130 μM (FIG. 1)): approximately 5 fold
